For 79 compounds, RP-LC retention time results are on record in the METLIN SMRT retention time set (Domingo-Almenara et al. 2019).

The series in a line: gradient 5% acetonitrile 3 min, to 50% in 2 min, to 85% in 15 min, held 3 min, 100 µL/min. The note with it: column: Zorbax Extend-C18 2.1 x 50 mm; eluents: water / acetonitrile, 0.1% formic acid. A digest of the protocol: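 Pure standards were analyzed in mixtures of ~100 molecules using HPLC coupled to a quadrupole time-of-flight mass spectrometer, in both positive and negative ionization mode. Separation used a Zorbax Extend-C18 column (2.1 × 50 mm, 1.8 μm) at 100 μL/min, with water and acetonitrile each containing 0.1% formic acid. Dead and dwell volumes were 40 μL and 900 μL, and data were collected over 3 months. Retention time was read from computationally picked adduct peaks, each inspected manually.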
Take `CC1CCN(CCCNc2ccc(-c3nc(-c4ccc(F)cc4)no3)cn2)CC1`: the RP-LC retention time came out at 740 s.

On to `O=C1CCN(C(=O)c2ccoc2)CCCCCCN1`, for which the RP-LC retention time worked out at 617 s.

For `CCc1nc(N)n(CC(=O)NCc2ccc(Cl)cc2)c(=O)c1C`, the RP-LC retention time is 645 s.

Compound `CC(=O)Nc1nc2c(s1)CN(CC(=O)Nc1ccc(F)c(Cl)c1)CC2` returned an RP-LC retention time of 573 s.

`Cc1csc(-c2cc(S(=O)(=O)NCc3ccc(Br)cc3)c(C)s2)n1` showed an RP-LC retention time of 1050 s.

In the case of `CN1CCC(NC(=O)c2cccc3c2CCN3C(=O)c2ccc(F)cc2)CC1`, the RP-LC retention time amounted to 602 s.

The compound `CCOc1ccc(C(=O)n2nc(C)c(S(=O)(=O)N3CCCC3)c2C)cc1` had an RP-LC retention time of 1130 s.

As for `O=c1cc(-c2ccc(F)cc2)ncn1Cc1cccc(C(F)(F)F)c1`, the RP-LC retention time was 940 s.

Consider `O=C(CCn1c(=O)sc2ccccc21)N(Cc1ccccc1)Cc1ccccc1`, for which the RP-LC retention time is 1040 s.

Compound `O=C(NCc1ccc2c(c1)OCO2)c1nc2ccccn2c1-c1ccsc1` displayed an RP-LC retention time of 787 s.

`COc1ccc(NC2CC(=O)N(c3ccccc3Cl)C2=O)cc1` (centres undefined) displayed an RP-LC retention time of 627 s.

The compound `Cc1ccc(CN2CCC(c3nc(-c4cnccn4)n[nH]3)CC2)o1` yielded an RP-LC retention time of 566 s.

`O=S(=O)(NCc1nnnn1C1CCCCC1)c1cccs1` displayed an RP-LC retention time of 740 s.

As for `COc1cc(NC(=O)C2CCCN2S(=O)(=O)c2ccc3c(c2)CC(C)N3C(C)=O)cc(OC)c1` (centres undefined), the RP-LC retention time came to 844 s.

`CC(NC(=O)c1csc(C(=O)NC2CCCC2)n1)c1ccc(F)cc1` (centres undefined) came in with an RP-LC retention time of 931 s.

Consider `Cc1cccc(-c2noc(Cn3ccn(-c4cc(C)ccc4C)c(=O)c3=O)n2)c1`, for which the RP-LC retention time is 963 s.

In turn, `O=C(NCc1csc(-c2ccccc2)n1)C1CCN(C(=O)Nc2ccc(F)cc2F)CC1` registered an RP-LC retention time of 784 s.

Compound `Cc1nc(Nc2ccc(NC(=O)c3ccc(Br)o3)cc2)cc(-n2ccnc2)n1` showed an RP-LC retention time of 587 s.

Take `Cc1ccc(CN2CCN(C3CCN(S(=O)(=O)c4ccccc4Cl)CC3)C(=O)C2=O)cc1`: the RP-LC retention time amounted to 847 s.

`Cc1cc(C)c(S(=O)(=O)N2CCc3nn(CC(C)C)c(=O)n3CC2)c(C)c1` came in with an RP-LC retention time of 664 s.

The compound `COc1ccc(OC)c(NC(=O)N2CCN(c3cc(C)nc(N4CCOCC4)n3)CC2)c1` yielded an RP-LC retention time of 627 s.

On to `CCn1cc(-c2nc(-c3ccccc3OC)no2)c(=O)c2cc(F)ccc21`, for which the RP-LC retention time was 820 s.

Compound `CC(=O)Nc1ccc(S(=O)(=O)N2CCn3cccc3C2c2ccc(F)c(F)c2)cc1` (centres undefined) showed an RP-LC retention time of 857 s.

Consider `CCOC(=O)c1c(S(=O)(=O)N2CCC(C(=O)Nc3ccccn3)CC2)c(C)n(C)c1C`, for which the RP-LC retention time is 678 s.

`CCn1cnc(S(=O)(=O)N2CCC(C(=O)Nc3ccc(OC)cc3OC)CC2)c1` yielded an RP-LC retention time of 706 s.

For the compound `CCOc1ccc(-n2c(=O)c3sccc3n(Cc3nc(-c4ccc(CC)cc4)no3)c2=O)cc1`, the RP-LC retention time stood at 1170 s.

Regarding `CCc1nn2c(CNC(=O)C3CCCO3)c(-c3ccccc3)nc2s1` (centres undefined), the RP-LC retention time was 765 s.

Consider `O=C(Cn1ccc2sccc2c1=O)Nc1cccc(C(F)(F)F)c1`, for which the RP-LC retention time is 834 s.

As to `CCOC(=O)c1cc(S(=O)(=O)N2CCCC2C(=O)Nc2ccccc2)cn1C` (centres undefined), the RP-LC retention time came out at 903 s.

`COc1cccc(Cn2nc3n(CCC(=O)NC4CCCC4)c(=O)c4ccccc4n3c2=O)c1` yielded an RP-LC retention time of 873 s.

`CCCCN(C)C(=O)C1CCC(=O)N(c2cc(OC)c(OC)c(OC)c2)C1c1ccc(OC)cc1` (centres undefined) registered an RP-LC retention time of 768 s.

Regarding `CCOc1ccc(C(=O)Nc2ccc3c(c2)Sc2ncccc2C(=O)N3C(C)C)cc1`, the RP-LC retention time stood at 972 s.

`Cn1c(C(=O)NCCc2c[nH]c3ccccc23)cc2sccc21` displayed an RP-LC retention time of 916 s.

`CCOC(=O)c1cccc(Nc2nc(-c3cccnc3)nc3ccccc23)c1` came in with an RP-LC retention time of 832 s.

`CCNC(=O)C(=O)NCC(c1ccc2c(c1)CCCN2C)N1CCCCC1` (centres undefined) yielded an RP-LC retention time of 649 s.

Compound `Cc1oc2c(c1C(=O)Nc1ccc(F)c(F)c1)C1=NCCN1C=N2` had an RP-LC retention time of 643 s.

On to `CCCn1cc(S(=O)(=O)NCc2ccc(C)c(C)c2)c2cccnc21`, for which the RP-LC retention time turned out to be 984 s.

The compound `N#Cc1ccccc1CN1CCC2(CCC2O)CC1` (centres undefined) registered an RP-LC retention time of 565 s.

The compound `Cc1cnn(Cc2nc(-c3ccc(NC(=O)c4ccc(C)s4)cc3)oc2C)c1` showed an RP-LC retention time of 940 s.

In turn, `CC(=O)c1cccc(NC(=O)Cn2c(-c3cnccn3)nc(C)c(C)c2=O)c1` yielded an RP-LC retention time of 650 s.

Consider `O=C(NCc1cccs1)c1ccc(N2CCCCS2(=O)=O)cc1`, for which the RP-LC retention time turned out to be 696 s.

`CN(C)C(=O)c1ccc2oc(CN3CCN(C(=O)NC(C)(C)C)CC3)nc2c1` gave an RP-LC retention time of 597 s.

Take `COc1ccc(-c2nnc(N3CCC(C(=O)NCCN4CCOCC4)CC3)o2)cc1`: the RP-LC retention time was determined as 889 s.

`CCN(CC)S(=O)(=O)c1ccc(Cl)c(C(=O)NCc2ccccn2)c1`: the RP-LC retention time was 676 s.

The compound `COc1ccc(/C=C/c2nc3sc4c(c3c(=O)o2)CCCC4)cc1OC` had an RP-LC retention time of 1250 s.

Compound `Cc1ccc(Oc2nccnc2SCC(=O)NCCC2=CCCCC2)cc1` yielded an RP-LC retention time of 1090 s.

Turning to `Cc1ccc(S(=O)(=O)N(C)CC2(C)CCOCC2)cc1F`, the RP-LC retention time was determined as 957 s.

In turn, `Cc1nc(C(=O)Nc2ccc(Cl)cc2C)c(C)o1` gave an RP-LC retention time of 1030 s.

In the case of `O=C(NC1CC1)[C@@H]1C[C@H](Oc2cccnc2)CN1C(=O)CC1CCCC1`, the RP-LC retention time worked out at 605 s.

In the case of `Cc1sc(NC(=O)CCc2ccccc2)nc1-c1ccc2c(c1)N(C)C(=O)CO2`, the RP-LC retention time turned out to be 1010 s.

`COc1ccc2[nH]cc(CCNC(=O)c3cc4n(n3)CCCN(Cc3ccc(F)cc3)C4=O)c2c1` had an RP-LC retention time of 852 s.

For `O=C(CN1CCN(C(=O)Nc2ccccc2)CC1=O)N1CCN(c2ccccc2)CC1`, the RP-LC retention time was 696 s.

For the compound `CCC(=O)NCc1nc2c(n1C)CN(S(=O)(=O)Cc1ccc(Cl)cc1)CC2`, the RP-LC retention time amounted to 539 s.

`Cc1ccc(CNC(=O)c2nnc(-c3ccc(S(=O)(=O)N4CCC(C)CC4)cc3)o2)o1` returned an RP-LC retention time of 923 s.

In turn, `O=C(Cn1cnc(-c2noc(-c3ccc(F)cc3)n2)c1)NC1CCCCC1` returned an RP-LC retention time of 862 s.

For the compound `COc1ccc(-c2ncc3c(=O)n(CC(=O)Nc4ccc(OC)c(OC)c4)cnc3n2)cc1`, the RP-LC retention time is 750 s.

In turn, `CCCCNC(=O)NC1CCS(=O)(=O)C1` (centres undefined) had an RP-LC retention time of 571 s.

In the case of `Cc1cc(C)n(-c2ccnc(N3CCC(C(=O)N4CCSCC4)CC3)n2)n1`, the RP-LC retention time came out at 854 s.

Compound `Cc1nc(Cn2cccc2C(=O)Nc2cccc(C#N)c2)no1` showed an RP-LC retention time of 798 s.

`Cc1ccc(NC(=O)C2CCCN(c3nc4c(s3)c(C)nn4-c3ccccc3)C2)c(C)c1` (centres undefined) registered an RP-LC retention time of 1200 s.

Compound `CC1CCN(C(=O)C2CCN(S(=O)(=O)c3ccc4c(c3)CCCC(=O)N4)CC2)CC1` registered an RP-LC retention time of 744 s.

For the compound `CCCCNC(=O)Cn1nc2c(N3CCSCC3)nccn2c1=O`, the RP-LC retention time was determined as 728 s.

Take `O=C(Oc1cccc(Oc2ccccc2)c1)N1CCOCC1`: the RP-LC retention time is 889 s.

Compound `COc1ccc(-c2c(C)noc2NC(C)=O)cc1S(=O)(=O)N1CCc2ccccc21` showed an RP-LC retention time of 784 s.

As to `Cn1cc(CC(=O)NCc2cccc(F)c2)c2cccnc21`, the RP-LC retention time was found to be 669 s.

With `O=S(=O)(Cc1ccccc1)N1CCCC(Cc2noc(-c3ccccc3)n2)C1` (centres undefined), the RP-LC retention time was determined as 1050 s.

Regarding `Cc1ccccc1Nc1c(-c2ccc(O)cc2)nc2ccc(Cl)cn12`, the RP-LC retention time came to 710 s.

As for `Cc1ccc(CNC(=O)C2(c3ccc(NC(=O)C(C)C)cc3)CCC2)cc1C`, the RP-LC retention time amounted to 936 s.

Compound `CCN1C(=O)c2cc(C(=O)NCc3cccc(C)c3)nn2CC1(C)C(=O)NC1CCCC1` (centres undefined) displayed an RP-LC retention time of 812 s.

Compound `Cc1ccc(C)c(N2CCN(C(=O)Cn3nc(C(=O)N4CCCCC4)c4ccccc43)CC2)c1` returned an RP-LC retention time of 1100 s.

The compound `CC(C)COC(=O)NCCc1nc2ccccc2[nH]1` came in with an RP-LC retention time of 556 s.

`CC(=O)Nc1cc(C(=O)NC(C)c2ccccc2)c2ccc(C)nc2c1` (centres undefined) showed an RP-LC retention time of 1030 s.

`Cc1ccc(C)c(-c2cc3c(=O)n(Cc4nc(-c5cccc(Br)c5)no4)ncn3n2)c1` showed an RP-LC retention time of 1340 s.

In the case of `Cc1ccc(Sc2nccnc2N2CCCC(C(=O)NCc3ccc(N(C)C)cc3)C2)cc1` (centres undefined), the RP-LC retention time was found to be 837 s.

`CC(=O)N1CCOc2ccc(S(=O)(=O)N3CCCC3C(=O)Nc3nccs3)cc21` (centres undefined) displayed an RP-LC retention time of 735 s.

With `Cc1cccc(Oc2nccnc2N2CCC(C(=O)NC(C)c3ccccc3)CC2)c1` (centres undefined), the RP-LC retention time worked out at 1020 s.

With `Cc1cc(NC(=O)C2CCN(C(=O)C3Sc4ccccc4NC3=O)CC2)ccc1Br` (centres undefined), the RP-LC retention time turned out to be 901 s.

In the case of `Cn1ccc2c(cc(C(=O)N3CCN(c4ccccn4)CC3)n2C)c1=O`, the RP-LC retention time worked out at 560 s.

For the compound `O=C(c1cc(F)ccc1F)N1CCCC1c1nc(-c2ccc(F)cc2)no1` (centres undefined), the RP-LC retention time amounted to 1030 s.
